Data reported in ChEMBL document CHEMBL1140648, “Structure-activity relationships of bioisosteres of a carboxylic acid in a novel class of bacterial translation inhibitors” (2007).
≈ marks a conversion by molar mass, not a printed value.

What was measured:
Assay type in all cases: functional
Staphylococcus aureus [1] = test: Inhibition of transcription/translation in Staphylococcus aureus at 100 uM
Staphylococcus aureus [2] = test: Antibacterial activity against Staphylococcus aureus UC9218
Staphylococcus aureus [3] = test: Antibacterial activity against Staphylococcus aureus UC9218 in presence of 5% HSA
Staphylococcus aureus [4] = test: Antibacterial activity against Staphylococcus aureus UC9218 in presence of 10% HSA
Staphylococcus aureus [5] = test: Ratio of MIC for Staphylococcus aureus UC9218 in presence of 5% HSA to MIC for Staphylococcus aureus UC9218 in absence of HSA

| SMILES | inhibition at 100 µM (Staphylococcus aureus [1]) | MIC (Staphylococcus aureus [2]) | MIC (Staphylococcus aureus [3]) | MIC (Staphylococcus aureus [4]) | Ratio (Staphylococcus aureus [5]) |
| --- | --- | --- | --- | --- | --- |
| CN(c1ccc(Cl)cc1)S(=O)(=O)c1ccc(C(=O)Nc2ccc(Br)cc2C(=O)O)cc1 | 79% | 8 µg/mL (≈ 15.3 µM) | 128 µg/mL | > 128 µg/mL | 8 |
| CN(c1ccc(Cl)cc1)S(=O)(=O)c1ccc(C(=O)Nc2ccc(Br)cc2-c2noc(=O)[nH]2)cc1 | 98% | 8 µg/mL (≈ 14.2 µM) | > 128 µg/mL | > 128 µg/mL | >8 |
| CN(c1ccc(Cl)cc1)S(=O)(=O)c1ccc(C(=O)Nc2ccc(Br)cc2C(O)(C(F)(F)F)C(F)(F)F)cc1 | 41% | 0.5 µg/mL (≈ 0.774 µM) | 64 µg/mL | > 128 µg/mL | 128 |
| CN(c1ccc(Cl)cc1)S(=O)(=O)c1ccc(C(=O)Nc2ccc(Br)cc2CO)cc1 | 4% | > 128 µg/mL | – | – | – |
| CN(c1ccc(Cl)cc1)S(=O)(=O)c1ccc(C(=O)Nc2ccc(Br)cc2C(N)=O)cc1 | 13% | > 128 µg/mL | – | – | – |
| CONC(=O)c1cc(Br)ccc1NC(=O)c1ccc(S(=O)(=O)N(C)c2ccc(Cl)cc2)cc1 | 7% | > 128 µg/mL | – | – | – |
| CN(c1ccc(Cl)cc1)S(=O)(=O)c1ccc(C(=O)Nc2ccc(Br)cc2Cc2nnn[nH]2)cc1 | 46% | > 128 µg/mL | – | – | – |
| CN(c1ccc(Cl)cc1)S(=O)(=O)c1ccc(C(=O)Nc2ccc(Br)cc2-c2n[nH]c(=O)o2)cc1 | 60% | 2 µg/mL (≈ 3.55 µM) | – | > 128 µg/mL | – |
| CN(c1ccc(Cl)cc1)S(=O)(=O)c1ccc(C(=O)Nc2ccc(Br)cc2S(N)(=O)=O)cc1 | 0% | > 128 µg/mL | – | – | – |
| CC(O)c1cc(Br)ccc1NC(=O)c1ccc(S(=O)(=O)N(C)c2ccc(Cl)cc2)cc1 (stereo unspecified) | 7% | > 128 µg/mL | – | – | – |
| Cc1cc(Br)ccc1NC(=O)c1ccc(S(=O)(=O)N(C)c2ccc(Cl)cc2)cc1 | 12% | > 128 µg/mL | – | – | – |
| CN(c1ccc(Cl)cc1)S(=O)(=O)c1ccc(C(=O)Nc2ccc(Br)cc2-c2nnn[nH]2)cc1 | 96% | 16 µg/mL (≈ 29.2 µM) | – | – | – |
| CN(c1ccc(Cl)cc1)S(=O)(=O)c1ccc(C(=O)Nc2ccc(Br)cc2NS(C)(=O)=O)cc1 | 19% | > 128 µg/mL | – | – | – |
| CN(c1ccc(Cl)cc1)S(=O)(=O)c1ccc(C(=O)Nc2ccc(Br)cc2Br)cc1 | 6% | > 128 µg/mL | – | – | – |
| CN(c1ccc(Cl)cc1)S(=O)(=O)c1ccc(C(=O)Nc2ccc(Br)cc2NS(=O)(=O)C(F)(F)F)cc1 | 72% | 32 µg/mL (≈ 51 µM) | – | – | – |
| CC(=O)c1cc(Br)ccc1NC(=O)c1ccc(S(=O)(=O)N(C)c2ccc(Cl)cc2)cc1 | 0% | > 128 µg/mL | – | – | – |
| CN(c1ccc(Cl)cc1)S(=O)(=O)c1ccc(C(=O)Nc2ccc(Br)cc2)cc1 | 11% | > 128 µg/mL | – | – | – |
| CN(c1ccc(Cl)cc1)S(=O)(=O)c1ccc(C(=O)Nc2ccc(Br)cc2[N+](=O)[O-])cc1 | 0% | > 128 µg/mL | – | – | – |
| CN(c1ccc(Cl)cc1)S(=O)(=O)c1ccc(C(=O)Nc2ccc(Br)cc2C#N)cc1 | 0% | > 128 µg/mL | – | – | – |
| CO[C@@H]1[C@@H](OC(N)=O)[C@@H](O)[C@H](Oc2ccc3c(O)c(NC(=O)c4ccc(O)c(CC=C(C)C)c4)c(=O)oc3c2C)OC1(C)C [NOVOBIOCIN] | – | > 0.125 µg/mL | 0.5 µg/mL | 1 µg/mL | – |
